In patent US5763400A, “Ecdysis-triggering hormone compositions” (priority 1996, dated 1998):
Entries after “also recorded” stand apart in the source; their conditions may differ. Ends that are not written are not given here.

Tests used:
[1] = Physiological actions of ETH-PRP2 (no method described)
[2] = test system: pharate 5th instar larvae; experiment: Injection into pharate 5th instar larvae: induction of pre-ecdysis and ecdysis behavior; format: in vivo, Manduca sexta; settings: for biological activity of additional EG peptides: initial RPLC data on EG
Description: A peptide with ecdysis-triggering activity was also purified from an extract of 50 pharate pupal EG with reversed-phase liquid chromatography (RPLC) (FIG. 1A) . For HPLC fractionation, freshly-dissected EG were homogenized in acidic methanol (MeOH: H2 O:acetic acid, 90:9:1) and the supernatant was evaporated to dryness. Crude extracts of EG were fractionated with a Microsorb C4 column (wide pore 300 A, 4.6 mm/25 cm), with a linearly increasing gradient of acetonitrile (3 to 53% in 90 min) in constant 0.1% TFA/water using a flow rate of 1 ml/min. Fractions were collected based on UV absorbance (220 nm) and vacuum centrifuged to dryness. Individual fractions were re-suspended in physiological saline and injected into pharate fifth instar Manduca sexta larvae. Induction of preecdysis behavior, visible as synchronous dorso-ventral contractions in body segments, were scored as positive responses.
(§1) Natural ecdysis in pharate 5th instar larvae is preceded by a well-defined pre-ecdysis behavior, characterized by dorso-ventral contractions that occur synchronously in abdominal and thoracic segments (Copenhaver and Truman, 1982; Truman and Weeks, 1983, 1985). Contractions, visible as a dimpling of the dorso-lateral body wall, begin in the most posterior segment, and gradually spread anteriorly. Pre-ecdysis behavior typically lasts 60 to 80 min, and is followed by ecdysis behavior, which lasts about 10 min. Ecdysis behavior is characterized by a distinctly different motor pattern consisting of peristaltic waves of contractions, which originate in the most posterior segment and move anteriorly (Weeks and Truman, 1984). Using a pressure transducer to record changes in internal pressure, in vivo measurements of pre-ecdysis and ecdysis contraction patterns were obtained in pharate 5th instar larvae and pharate pupae. Internal hydrostatic pressure was measured in pharate 5th instar larvae and pharate pupae of Manduca sexta with a Gould-Statham P23-ID pressure transducer. The transducer was connected to a saline-filled tube which in turn was attached to the posterior dorsal horn of pharate 5th instar larvae and pharate pupae with low melting point dental wax.
During natural pre-ecdysis in the larva, dorso-ventral contractions typically occur every 10 to 12 seconds with a duration of 5 to 7 seconds (FIG. 2A). When pharate larvae were injected with Mas-ETH (20 pmol to 1 nmol), pre-ecdysis began within 2 to 10 min, and the pattern was indistinguishable from that observed under natural conditions (n=13). The pre-ecdysis induced by Mas-ETH injection lasted 35 to 65 min, and was followed by ecdysis (FIG. 2A).
At about 36 hours preceding natural ecdysis in pharate 5th instar larvae, the first signs of apolysis can be observed as an accumulation of molting fluid in the prothorax. About two hours later, head capsule slip occurs (Curtis et al., 1984). Premature ecdysis behavior induced by Mas-ETH injection (34-10 hours prior to natural ecdysis) lasted from 10 to 45 min. […] Mas-ETH triggered successful ecdysis only after the old cuticle is sufficiently digested, some 6 to 8 hr before normal ecdysis. Sensitivity to ETH, therefore, is shown to exist during the pharate stage.
The ETH-PRP1 peptide was dissolved into physiological saline and injected into pharate fifth instar Manduca sexta larvae. A dose range of 50 pmol to 5 nmol was tested.

larval insects = experiment: Injection of synthetic Bom-ETH forms into larval insects; format: in vivo, Bombyx mori; settings: free acid at doses much higher than the amidated form
Description: Synthetic Bom-ETH was prepared according to standard solid phase peptide synthesis methods by Research Genetics, Inc. (Birmingham, AL) to provide a peptide having the amino acid sequence of the 23 mer. Both the amidated and free --COOH terminal forms were prepared.

[3] = test system: pharate 5th instar larvae; experiment: Injection into pharate 5th instar larvae: induction of pre-ecdysis and ecdysis behavior; format: in vivo, Manduca sexta; settings: injected into insect larvae
pharate pupae = experiment: Injection into pharate pupae: induction of pre-ecdysis and ecdysis; format: in vivo, Manduca sexta; settings: 400 pmol to 1 nmol
Description: as §1
Pharate pupae responded to injections (400 pmol to 1 nmol) (FIG. 2B; n=12) up to 48 hours prior to natural ecdysis. […]

[4] = test system: isolated nerve cords lacking the tracheal system; experiment: Pre-ecdysis and ecdysis motor patterns in isolated nerve cords lacking the tracheal system; format: cell-based, Manduca sexta; settings: absence of the tracheal system
Description: (§2) The entire central nervous system or a chain of abdominal ganglia dissected from pharate fifth instar larvae or pharate pupae were placed in a 300 ml Sylgard bath and bathed in modified Weever's saline. Motor output was recorded extracellularly from dorsal roots of abdominal ganglia A5, A6, and A7 using polyethylene suction electrodes. Potentials were amplified with Grass P-15 AC amplifiers, captured on video tape, and played back on a Gould Brush pen recorder. To record natural pre-ecdysis and ecdtysis, the nervous system was removed after initiation of the behavior.
The tracheal system was removed in all studies. The pattern of pre-eccdysisin isolated pharate 5th instar CNS under natural conditions was quite similar to that elicited by application of 100 nM Mas-ETH. To observe natural pre-ecdysis and ecdysis motor patterns, animals were observed until initiation of pre-ecdysis, at which time nerve cords were quickly removed and prepared for suction electrode recordings. In both instances, pre-ecdysis bursts occurred synchronously in the dorsal nerves of A5-A7 every 10 to 12 seconds with a duration of 5 to 10 sec. Similarly, the burst pattern driving ecdysis in pharate larvae under natural conditions was similar to that resulting from exposure to 1 mM Mas-ETH. Ecdysis bursts occurred every 20 to 30 seconds and were about 20 sec in duration, with an intersegmental delay of about 5 sec. […]

[5] = test system: isolated central nervous system of pharate 5th instar larvae; experiment: Motor burst patterns of isolated central nervous system of pharate 5th instar larvae, bath application; format: cell-based, Manduca sexta
Description: as §2
For studies involving bath application of synthetic MasETH, pharate 5th instar nerve cords were dissected at -8 hr prior to ecdysis, using liquid-Lilled head and brown mandibles as morphological markers. Pharate pupae were dissected at 8 hours prior to natural ecdysis using brown bars as the morphological marker.
The tracheal system was removed in all studies. The pattern of pre-eccdysisin isolated pharate 5th instar CNS under natural conditions was quite similar to that elicited by application of 100 nM Mas-ETH. To observe natural pre-ecdysis and ecdysis motor patterns, animals were observed until initiation of pre-ecdysis, at which time nerve cords were quickly removed and prepared for suction electrode recordings. In both instances, pre-ecdysis bursts occurred synchronously in the dorsal nerves of A5-A7 every 10 to 12 seconds with a duration of 5 to 10 sec. Similarly, the burst pattern driving ecdysis in pharate larvae under natural conditions was similar to that resulting from exposure to 1 mM Mas-ETH. Ecdysis bursts occurred every 20 to 30 seconds and were about 20 sec in duration, with an intersegmental delay of about 5 sec. Burst durations and intervals between bursts became longer as the behavior progressed, which corresponded to observations of natural behavior patterns. Optimal Mas-ETH concentrations for triggering pre-ecdysis were lower than those necessary for ecdysis.

[6] = test system: pharate fourth instar Manduca sexta larvae; experiment: Injection into pharate fourth instar larvae (liquid-filled head capsule stage), carboxy-terminus study; settings: in vivo
Description: The amidated and acid form of the 26 mer of SEQ ID NO:3 was prepared using a solid state synthesizer. This procedure is the same as that described at example 7. The amidated and acid forms of ETH used in the present study were synthesized by Research Genetics Corporation using these standard protocols (5 mg. each of the amidated-ETH and the acid-ETH).

pharate adults = experiment: Injection into pharate adults: induction of ecdysis (eclosion); format: in vivo, Manduca sexta
Description: Pharate pupae responded to injections (400 pmol to 1 nmol) (FIG. 2B; n=12) up to 48 hours prior to natural ecdysis. […] Ecdysis followed after a period of 50 to 90 min. Pharate adults responded to Mas-ETH injections (1 to 2 nmol) up to 24 hours prior to natural ecdysis (n=10). Rotatory movements of the abdomen began within 3 to 10 min of injection and were followed by a period of relative quiescence.

## ETH-PRP2: 15-mer peptide deduced from the ETH precursor, Gln 20 to Val 34, SEQ ID NO:13 (QVESSFIKPNNVPRV)
[1]
  cardioacceleration: acts as a cardioaccelerator
  effect on physiological actions of Mas-ETH: increasing its ecdysis triggering activity
[2]
  biological activity of additional EG peptides: ETH-like biological activity

## SNEAFDEDVMGYVIKSNKNIPRM (not fully specified (C-terminus)) [Bom-ETH amidated form]
Larval insects
  biological activity upon injection: biologically active

## ETH-PRP1: 47-mer peptide, Asn 66 to Met 112 of the ETH precursor, SEQ ID NO:14, chemically synthesized (NYDSENRFDIPKLYPWRAENTELYEDDAQPTNGEEINGFYGKQRENM)
[3]
  cardioactivity: causes cardioacceleration
[2]; dose range 50 pmol to 5 nmol
  ecdysis behavior: did not elicit ecdysis behavior
  latency from injection to preecdysis behavior: 15 to 20 min
[2]; in vivo
  pre-ecdysis stimulating activity: pre-ecdysis stimulating activity
[2]
  biological activity of additional EG peptides: ETH-like biological activity

## CCOc1ccc2nc(S(N)(=O)=O)sc2c1 [Mas-ETH]
Pharate pupae; earlier stages of development
  pre-ecdysis by blood pressure measurements: clear rhythm within minutes
Pharate pupae; n=12
  time prior to natural ecdysis at which pharate pupae respond to injection: up to 48 hours
[4]
  pre-ecdysis and ecdysis motor patterns of isolated CNS: elicited motor burst patterns; also recorded: can generate pre-ecdysis and ecdysis motor patterns
[4]; listed as ETH
  pre-ecdysis and ecdysis motor patterns of isolated CNS: responds to ETH; also recorded: responded; also recorded: not required
[5]; 100 nM, dorsal nerves of A5-A7
  interval of pre-ecdysis bursts (every): 10 to 15 s
  pre-ecdysis burst duration: 5 to 7 s
[5]; 1 mM Mas-ETH
  ecdysis burst duration: about 20 sec
  intersegmental delay of ecdysis bursts: about 5 sec
[6]
  dose causing preecdysis followed by ecdysis: ≤ 1 pmol
Pharate adults; 1 to 2 nmol, n=10
  time prior to natural ecdysis at which pharate adults respond to injection: up to 24 hours
Pharate adults; emerged before resorption of molting fluid
  condition of emerged adults: could not inflate their wings
[2]; injected at head capsule slip, 34 hours prior to normal ecdysis
  behavior exhibited after injection: both pre-ecdysis and ecdysis motor patterns
[2]; injection 34-10 hours prior to natural ecdysis
  outcome of premature ecdysis behavior: ecdysis could not be completed
[2]; pre-ecdysis behavior, n=7
  time prior to normal ecdysis at which larvae respond to injection: up to 36 hours
